# Reference: US6737383B1, “Herbicidal oxadiazolidines” (priority 1999, dated 2004)
# How the values were obtained:
# bedstraw = assay: Test B pre/postemergence bedstraw; format: in vivo, Galium aparine
# Procedure, shortened: (§1)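 Herbicidal effect was estimated by eye on a ten-point control scale after plants spent twelve to sixteen days in a greenhouse following soil or foliar treatment. Foliar sprays targeted plants at one to four leaves; all doses were formulated in a non-phytotoxic solvent with surfactant.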
# blackgrass = assay: Test B pre/postemergence blackgrass; format: in vivo, Alopecurus myosuroides
# Procedure, shortened: as §1
# surinam grass = assay: Test B pre/postemergence surinam grass; format: in vivo, Brachiaria decumbens; settings: Postemergence
# Procedure, shortened: as §1
# cocklebur = assay: Test B pre/postemergence cocklebur; format: in vivo, Xanthium strumarium
# Procedure, shortened: as §1
# corn = assay: Test B pre/postemergence corn; format: in vivo, Zea mays
# Procedure, shortened: as §1
# crabgrass = assay: Test B pre/postemergence crabgrass; format: in vivo, Digitaria sanguinalis
# Procedure, shortened: as §1
# giant foxtail = assay: Test B pre/postemergence giant foxtail; format: in vivo, Setaria faberii
# Procedure, shortened: as §1
# morningglory = assay: Test B pre/postemergence morningglory; format: in vivo, Ipomoea hederacea
# Procedure, shortened: as §1
# pigweed = assay: Test B pre/postemergence pigweed; format: in vivo, Amaranthus retroflexus
# Procedure, shortened: as §1
# soybean = assay: Test B pre/postemergence soybean; format: in vivo, Glycine max
# Procedure, shortened: as §1
# sugar beet = assay: Test B pre/postemergence sugar beet; format: in vivo, Beta vulgaris
# Procedure, shortened: as §1
# wild oat = assay: Test B pre/postemergence wild oat; format: in vivo, Avena fatua
# Procedure, shortened: as §1
# purple nutsedge = assay: Test B pre/postemergence purple nutsedge; format: in vivo, Cyperus rotundus
# Procedure, shortened: as §1
# rice = assay: Test B flood test rice; format: in vivo, Oryza sativa
# Procedure, shortened: (§2)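 Read-out is a visual response score from 0 (no effect) to 10 (complete control), assigned by comparison with untreated controls. Treatment was applied at the 2-leaf stage, and plants stayed in the greenhouse for twelve to sixteen days before scoring.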
# smallflower flatsedge = assay: Test B flood test smallflower flatsedge; format: in vivo, Cyperus difformis
# Procedure, shortened: as §2
# duck salad = assay: Test B flood test duck salad; format: in vivo, Heteranthera limosa
# Procedure, shortened: as §2
# [1] = Postemergence, Rate 62 g/ha, scale 0 to 10, 0 is no effect, 10 is complete control
# [2] = Postemergence, Rate 125 g/ha, scale of 0 to 10 where 0 is no effect and 10 is complete control
# [3] = Preemergence, Rate 125 g/ha, scale of 0 to 10 where 0 is no effect and 10 is complete control
# [4] = Preemergence, Rate 250 g/ha, scale 0 (no effect) to 10 (complete control)
# [5] = Rate 62 g/ha, Preemergence, scale 0 to 10
# [6] = Rate 500 g/ha, Postemergence, scale 0 to 10, 0 is no effect, 10 is complete control
# [7] = Rate 500 g/ha, Preemergence, scale 0 to 10 (0 no effect, 10 complete control)
# [8] = Rate 250 g/ha, Postemergence, scale 0 to 10, 0 is no effect, 10 is complete control
# [9] = Pre-emergence, Rate 62 g/ha, scale 0 to 10, 0 is no effect, 10 is complete control
# [10] = Rate 125 g/ha, Pre-emergence section (flood test species), scale 0 to 10, 0 no effect, 10 complete control
# [11] = Rate 250 g/ha, Pre-emergence (flood test species), scale 0 to 10, 0 is no effect, 10 is complete control
# [12] = Rate 500 g/ha, Pre-emergence section of Table B, 0 to 10 scale (0 no effect, 10 complete control)
smiles,measurement,setting,value
CC(C)N(C(=O)n1oc(=O)n(CC2=NOCCO2)c1=O)c1ccc(Cl)cc1 [Compound 740],"Plant response rating, Bedstraw",bedstraw; [1],0
same,Bedstraw plant response rating,bedstraw; [2],0
same,"Plant response rating, Bedstraw",bedstraw; [3],0
same,Bedstraw plant response rating,bedstraw; [4],0
same,Bedstraw plant response rating,bedstraw; [5],0
same,Bedstraw plant response rating,bedstraw; [6],0
same,Bedstraw plant response rating,bedstraw; [7],0
same,"Plant response rating, Blackgrass",blackgrass; [1],3
same,Blackgrass plant response rating,blackgrass; [2],3
same,"Plant response rating, Blackgrass",blackgrass; [3],6
same,Blackgrass plant response rating,blackgrass; [4],8
same,Blackgrass plant response rating,blackgrass; [5],3
same,Blackgrass plant response rating,blackgrass; [8],4
same,Blackgrass plant response rating,blackgrass; [6],7
same,Blackgrass plant response rating,blackgrass; [7],9
same,"Plant response rating, B. signalgrass","surinam grass; Rate 62 g/ha, scale 0 to 10, 0 is no effect, 10 is complete control",0
same,B. signalgrass plant response rating,"surinam grass; Rate 125 g/ha, scale of 0 to 10 where 0 is no effect and 10 is complete control",0
same,B. signalgrass plant response rating,"surinam grass; Rate 250 g/ha, scale 0 to 10, 0 is no effect, 10 is complete control",0
same,B. signalgrass plant response rating,"surinam grass; Rate 500 g/ha, scale 0 to 10, 0 is no effect, 10 is complete control",2
same,"Plant response rating, Cocklebur",cocklebur; [1],0
same,Cocklebur plant response rating,cocklebur; [2],0
same,"Plant response rating, Cocklebur",cocklebur; [3],0
same,Cocklebur plant response rating,cocklebur; [4],0
same,Cocklebur plant response rating,cocklebur; [5],0
same,Cocklebur plant response rating,cocklebur; [8],3
same,Cocklebur plant response rating,cocklebur; [6],3
same,Cocklebur plant response rating,cocklebur; [7],0
same,"Plant response rating, Corn",corn; [1],0
same,Corn plant response rating,corn; [2],0
same,"Plant response rating, Corn",corn; [3],0
same,Corn plant response rating,corn; [4],0
same,Corn plant response rating,corn; [5],0
same,Corn plant response rating,corn; [8],0
same,Corn plant response rating,corn; [6],0
same,Corn plant response rating,corn; [7],0
same,"Plant response rating, Crabgrass",crabgrass; [1],0
same,Crabgrass plant response rating,crabgrass; [2],0
same,"Plant response rating, Crabgrass",crabgrass; [3],4
same,Crabgrass plant response rating,crabgrass; [4],9
same,Crabgrass plant response rating,crabgrass; [5],4
same,Crabgrass plant response rating,crabgrass; [8],9
same,Crabgrass plant response rating,crabgrass; [6],9
same,Crabgrass plant response rating,crabgrass; [7],9
same,"Plant response rating, Giant foxtail",giant foxtail; [1],2
same,Giant foxtail plant response rating,giant foxtail; [2],7
same,"Plant response rating, Giant foxtail",giant foxtail; [3],9
same,Giant foxtail plant response rating,giant foxtail; [4],9
same,Giant foxtail plant response rating,giant foxtail; [5],4
same,Giant foxtail plant response rating,giant foxtail; [8],8
same,Giant foxtail plant response rating,giant foxtail; [6],9
same,Giant foxtail plant response rating,giant foxtail; [7],10
same,"Plant response rating, Morningglory",morningglory; [1],2
same,Morningglory plant response rating,morningglory; [2],3
same,"Plant response rating, Morningglory",morningglory; [3],0
same,Morningglory plant response rating,morningglory; [4],0
same,Morningglory plant response rating,morningglory; [5],0
same,Morningglory plant response rating,morningglory; [8],3
same,Morningglory plant response rating,morningglory; [6],7
same,Morningglory plant response rating,morningglory; [7],0
same,"Plant response rating, Redroot pigweed",pigweed; [1],0
same,Redroot pigweed plant response rating,pigweed; [2],2
same,"Plant response rating, Redroot pigweed",pigweed; [3],9
same,Redroot pigweed plant response rating,pigweed; [4],9
same,Redroot pigweed plant response rating,pigweed; [5],3
same,Redroot pigweed plant response rating,pigweed; [8],4
same,Redroot pigweed plant response rating,pigweed; [6],8
same,Redroot pigweed plant response rating,pigweed; [7],10
same,"Plant response rating, Soybean",soybean; [1],2
same,Soybean plant response rating,soybean; [2],3
same,"Plant response rating, Soybean",soybean; [3],0
same,Soybean plant response rating,soybean; [4],0
same,Soybean plant response rating,soybean; [5],0
same,Soybean plant response rating,soybean; [8],4
same,Soybean plant response rating,soybean; [6],6
same,Soybean plant response rating,soybean; [7],0
same,"Plant response rating, Sugarbeets",sugar beet; [1],0
same,Sugarbeets plant response rating,sugar beet; [2],0
same,Sugarbeets plant response rating,sugar beet; [4],3
same,Sugarbeets plant response rating,sugar beet; [5],0
same,Sugarbeets plant response rating,sugar beet; [8],2
same,Sugarbeets plant response rating,sugar beet; [6],2
same,Sugarbeets plant response rating,sugar beet; [7],5
same,"Plant response rating, Wild oats",wild oat; [1],0
same,Wild oats plant response rating,wild oat; [2],0
same,"Plant response rating, Wild oats",wild oat; [3],0
same,Wild oats plant response rating,wild oat; [4],2
same,Wild oats plant response rating,wild oat; [5],0
same,Wild oats plant response rating,wild oat; [8],0
same,Wild oats plant response rating,wild oat; [6],0
same,Wild oats plant response rating,wild oat; [7],6
same,"Plant response rating, Nutsedge",purple nutsedge; [1],0
same,Nutsedge plant response rating,purple nutsedge; [2],0
same,"Plant response rating, Nutsedge",purple nutsedge; [3],0
same,Nutsedge plant response rating,purple nutsedge; [4],0
same,Nutsedge plant response rating,purple nutsedge; [5],0
same,Nutsedge plant response rating,purple nutsedge; [8],0
same,Nutsedge plant response rating,purple nutsedge; [6],0
same,Nutsedge plant response rating,purple nutsedge; [7],0
same,Rice plant response rating,rice; [9],0
same,Rice plant response rating,rice; [10],0
same,Rice plant response rating,rice; [11],0
same,Rice plant response rating,rice; [12],0
same,S. Flatsedge plant response rating,smallflower flatsedge; [9],0
same,S. Flatsedge plant response rating,smallflower flatsedge; [10],0
same,S. Flatsedge plant response rating,smallflower flatsedge; [11],0
same,S. Flatsedge plant response rating,smallflower flatsedge; [12],0
same,Ducksalad plant response rating,duck salad; [9],0
same,Ducksalad plant response rating,duck salad; [10],0
same,Ducksalad plant response rating,duck salad; [11],0
same,Ducksalad plant response rating,duck salad; [12],0
